Experimental data taken from ChEMBL document CHEMBL2074441, “Identification of breast cancer resistant protein/mitoxantrone resistance/placenta-specific, ATP-binding cassette transporter as a transporter of NB-506 and J-107088, topoisomerase I inhibitors with an indolocarbazole structure” (Cancer Res, 2001).

How the values were obtained:
[1] = target: T1, Broad substrate specificity ATP-binding cassette transporter ABCG2 (Mus musculus, UniProt Q7TMS5); experiment: TP_TRANSPORTER: intracellular accumulation in LY and LY/NR2 cells; type: functional, cell-based
T1 sequence (Q7TMS5 whole entry): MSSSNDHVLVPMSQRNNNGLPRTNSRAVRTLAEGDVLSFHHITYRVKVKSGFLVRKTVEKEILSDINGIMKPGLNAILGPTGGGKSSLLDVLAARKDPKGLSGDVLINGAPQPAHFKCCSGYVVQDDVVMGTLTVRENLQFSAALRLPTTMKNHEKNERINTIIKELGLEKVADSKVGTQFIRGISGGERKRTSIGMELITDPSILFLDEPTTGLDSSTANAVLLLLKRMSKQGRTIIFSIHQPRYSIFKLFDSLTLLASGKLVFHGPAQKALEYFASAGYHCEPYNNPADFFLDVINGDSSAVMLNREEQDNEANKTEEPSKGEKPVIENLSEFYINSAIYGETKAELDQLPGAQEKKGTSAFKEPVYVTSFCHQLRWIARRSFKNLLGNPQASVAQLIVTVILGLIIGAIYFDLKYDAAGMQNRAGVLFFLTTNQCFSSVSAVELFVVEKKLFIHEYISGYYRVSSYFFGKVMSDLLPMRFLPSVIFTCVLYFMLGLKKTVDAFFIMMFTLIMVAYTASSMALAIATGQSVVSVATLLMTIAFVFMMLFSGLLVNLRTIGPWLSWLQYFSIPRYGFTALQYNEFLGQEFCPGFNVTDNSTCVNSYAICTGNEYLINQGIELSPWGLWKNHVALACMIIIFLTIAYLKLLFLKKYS

[2] = target: T2, Broad substrate specificity ATP-binding cassette transporter ABCG2 (Homo sapiens, UniProt Q9UNQ0); experiment: TP_TRANSPORTER: intracellular accumulation in BCRP-transfected PC-13 cells; type: functional, cell-based
T2 sequence (Q9UNQ0 whole entry): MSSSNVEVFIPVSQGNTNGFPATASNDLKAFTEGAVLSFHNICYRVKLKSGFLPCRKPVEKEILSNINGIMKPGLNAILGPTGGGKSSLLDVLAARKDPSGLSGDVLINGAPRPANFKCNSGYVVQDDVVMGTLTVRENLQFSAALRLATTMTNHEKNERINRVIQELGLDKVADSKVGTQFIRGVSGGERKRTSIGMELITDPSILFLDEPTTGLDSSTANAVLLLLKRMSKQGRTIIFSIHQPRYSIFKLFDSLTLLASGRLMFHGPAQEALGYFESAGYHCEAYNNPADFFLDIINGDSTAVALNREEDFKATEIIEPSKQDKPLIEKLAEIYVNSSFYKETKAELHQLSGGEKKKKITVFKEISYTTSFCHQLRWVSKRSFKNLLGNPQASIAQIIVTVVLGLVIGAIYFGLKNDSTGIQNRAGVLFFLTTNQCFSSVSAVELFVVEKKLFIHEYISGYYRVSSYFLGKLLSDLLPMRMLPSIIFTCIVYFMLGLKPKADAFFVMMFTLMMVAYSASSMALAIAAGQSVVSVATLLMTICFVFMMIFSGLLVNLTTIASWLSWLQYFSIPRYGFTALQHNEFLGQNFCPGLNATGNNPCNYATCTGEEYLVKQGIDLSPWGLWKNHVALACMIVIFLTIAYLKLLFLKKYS

Row | SMILES | Activity [1] | Activity [2]
1 | O=CNN1C(=O)c2c(c3c4cccc(O)c4n([C@@H]4O[C@H](CO)[C@@H](O)[C@H](O)[C@H]4O)c3c3[nH]c4c(O)cccc4c23)C1=O | substrate [+] | –
2 | O=C1c2c(c3c4ccc(O)cc4n([C@@H]4O[C@H](CO)[C@@H](O)[C@H](O)[C@H]4O)c3c3[nH]c4cc(O)ccc4c23)C(=O)N1NC(CO)CO [EDOTECARIN] | – | substrate [+]
